Experimental data from article PMC5590075, “Synthesis, Antimicrobial, and Antioxidant Activities of Chalcogen-Containing Nitrone Derivatives from (R)-citronellal” (Medicines, 2017).

Key:
[1] = ABTS radical scavenging; conditions: mean ± SD (n = 3)
Procedure: (§1) The antioxidant properties of the synthesized compounds (5a–d and 10) were evaluated by three different methods in vitro: DPPH (1,1-diphenyl-2-picryl-hydrazyl) and ABTS^+ (2,2′-azino-bis(3-ethylbenzthiazoline-6-sulfonic acid) radical scavenging ability and ferric ion reducing antioxidant power (FRAP). All drugs were dissolved in dimethyl sulfoxide (DMSO) at concentrations of 1–500 µM. These assays were performed according to the literature and details of these experiments are described elsewhere (see the ‘Results and Discussion’ section for the references). […]
(§2) 2.3. Antioxidant activity assays
(§3) The antioxidant properties of the synthesized compounds were evaluated by three different methods in vitro: DPPH and ABTS+ radical scavenging activity and ferric ion reducing antioxidant power (FRAP). All drugs were dissolved in dimethyl sulfoxide (DMSO). The experimental results were given as the means ± standard deviation (SD) to show the variations among the groups. The statistical analysis was performed using one‐way analysis of variance (ANOVA) followed by Newman‐Keuls multiple comparison test when appropriate. The differences were considered statistically significant at a probability of less than 5% (p < 0.05). All tests were performed at least three times in duplicate. The IC50 values (the concentration of sample required to scavenge 50% of the free radicals) were calculated from the graph of the scavenging effect percentage versus the […]
(§4) 2.4. Radical Scavenging Activity
To determine if compounds 5a–d and 10 present in vitro antioxidant activity against free radicals, DPPH and ABTS+ scavenging capability were evaluated at different concentrations. […]
(§5) The ABTS radical scavenging activity was determined according to the method described by Erel. Different concentrations of compounds 5a–d and 10 (10–500 μ M) were mixed with the ABTS+ solution, and the decrease in the absorbance at 734 nm was recorded. […]
(§6) values, as calculated by the following equation:
(§7) I% = [(Ac−As/Ac) × 100] (1)
3. Ferric ion reducing antioxidant power (FRAP) […]
(§8) reducing capacity of compounds 5a–d and 10.
[8] with slight modifications.
They were homogenized in a 0.1 M
The supernatants were used for determination of the δ‐ALAD activity. […]
and 500 μL of distilled water. […]
and the absorbance was read at 555 nm.

[2] = tested on: Bacillus cereus ATCC 11778; test: agar disk diffusion test; format: cell-based; conditions: B. cereus, 1.0 × 10^8 CFU.mL^−1; 20 μL compound diluted in DMSO (1:1) per 6 mm disc; streptomycin 10 µg; mean of two repetitions
From the text: To evaluate the antimicrobial potential of the synthesized compounds, the following reference strains of bacteria, that are economically important in foods, were employed: Gram-positive Listeria monocytogenes ATCC 7644, Staphylococcus aureus ATCC 25923, and Bacillus cereus ATCC 11778; Gram-negative Salmonella Typhimurium ATCC 14028, Escherichia coli O157: H7 NCTC 12900 and the clinically important Pseudomonas aeruginosa ATCC 15442.
The antimicrobial activity assay using the disk diffusion test was realized using the methodology that is recommended by the Clinical Laboratory Standards Institute (CLSI). The determination of the minimum inhibitory concentration (MIC) and minimum bactericidal concentration (MBC) was performed using the macro dilution tube method, in accordance with Rota et al., with modifications. Details of these assays are provided in the Supplemental Material. […]
2.1. Antimicrobial activity assay using the disk diffusion test
The disk diffusion test followed the methodology recommended by the Clinical Laboratory Standards Institute CLSI [4]. The inoculum was standardized by standard McFarland to the concentration of 10^8 CFU.mL−1 and spread on the surface of a Petri dish containing Mueller‐Hinton (MH) agar. Then, the paper disc (6 mm) was put on a plate impregnated with 20 μL of the testing compound previously diluted in DMSO (1:1) and incubated at 37 °C for 24 hours. Zone of inhibition ≥20 mm were considered as strong inhibition, <20–12 mm as moderate inhibition, and <12 mm no inhibition. A positive control with streptomycin antibiotic (10 μg) and a negative one, with paper discs impregnated with distilled water, were used […]
2.4. Radical Scavenging Activity […]
The ABTS radical scavenging activity was determined according to the method described by Erel. Different concentrations of compounds 5a–d and 10 (10–500 μ M) were mixed with the ABTS+ solution, and the decrease in the absorbance at 734 nm was recorded.

[3] = Ferric ion reducing antioxidant power (FRAP); conditions: mean ± SD (n = 3)
Procedure: The antioxidant properties of the synthesized compounds (5a–d and 10) were evaluated by three different methods in vitro: DPPH (1,1-diphenyl-2-picryl-hydrazyl) and ABTS^+ (2,2′-azino-bis(3-ethylbenzthiazoline-6-sulfonic acid) radical scavenging ability and ferric ion reducing antioxidant power (FRAP). All drugs were dissolved in dimethyl sulfoxide (DMSO) at concentrations of 1–500 µM. These assays were performed according to the literature and details of these experiments are described elsewhere (see the ‘Results and Discussion’ section for the references).
as §6, §7
3. Ferric ion reducing antioxidant power (FRAP)
as §8
[8] with slight modifications. […]

[4] = target: T1, δ-ALA-D (Mus musculus, UniProt P10518); test: δ-ALA-D activity in tissue supernatants (in vitro toxicity); conditions: mean ± SD (n = 3)
T1 sequence (P10518 1-330): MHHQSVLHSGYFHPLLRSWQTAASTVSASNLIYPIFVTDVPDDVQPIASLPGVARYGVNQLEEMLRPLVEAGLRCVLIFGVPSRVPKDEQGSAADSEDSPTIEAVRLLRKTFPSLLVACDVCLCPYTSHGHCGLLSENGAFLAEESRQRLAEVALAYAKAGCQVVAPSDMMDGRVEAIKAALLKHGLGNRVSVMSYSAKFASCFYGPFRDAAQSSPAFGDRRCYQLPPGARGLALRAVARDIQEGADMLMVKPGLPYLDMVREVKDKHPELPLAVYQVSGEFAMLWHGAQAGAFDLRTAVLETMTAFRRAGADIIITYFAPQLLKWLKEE

[5] = DPPH radical scavenging; conditions: 10–500 μM tested
Procedure: as §1, §2, §3, §4
To determine if compounds 5a–d and 10 present in vitro antioxidant activity against free radicals, DPPH and ABTS+ scavenging capability were evaluated at different concentrations.
The DPPH scavenging activity of compounds 5a–d and 10 (10–500 μM) was determined in accordance with the method of Sharma and Bhat and the decrease in the absorbance at 517 nm […]
as §5, §6
I% = [(Ac−As/Ac) × 100] (1) […]

CC(C)=CCC[C@@H](C)C(/C=N/O)[Se]c1ccccc1 (stereo partly drawn) [compound 10, (3R,E)-3,7-dimethyl-2-(phenylselanyl)oct-6-enal oxime]
ABTS radical scavenging, percentage of inhibition in relation to control ([1]; 5 μM): 2.39 ± 0.57% | ABTS radical scavenging, percentage of inhibition in relation to control ([1]; 10 μM): 27.81 ± 2.12 % | ABTS radical scavenging, percentage of inhibition in relation to control ([1]; 50 μM): 87.59 ± 4.81 % | ABTS radical scavenging, percentage of inhibition in relation to control ([1]; 100 μM): 94.03 ± 1.05 % | IC50 ([1]; read-out: ABTS radical scavenging IC50 (concentration compound required for 50% scavenging)): 25 ± 2 µM | Inhibition Zone [2]: 19 mm | Ferric ion reducing antioxidant power (FRAP), absorbance at 593 nm ([3]; 10 μM): 0.084 ± 0.010 | Ferric ion reducing antioxidant power (FRAP), absorbance at 593 nm ([3]; 50 μM): 0.180 ± 0.008 | Ferric ion reducing antioxidant power (FRAP), absorbance at 593 nm ([3]; 100 μM): 0.257 ± 0.007 | Ferric ion reducing antioxidant power (FRAP), absorbance at 593 nm ([3]; 500 μM): 1.291 ± 0.045 | δ-ALA-D activity ([4]; Brain, 10 μM): 0.30 ± 0.10 nmol PBG.mg.tn‐1.h‐1 | δ-ALA-D activity ([4]; Brain, 50 μM): 0.28 ± 0.09 nmol PBG.mg.tn‐1.h‐1 | δ-ALA-D activity ([4]; Brain, 100 μM): 0.26 ± 0.08 nmol PBG.mg.tn‐1.h‐1 | δ-ALA-D activity ([4]; Brain, 500 μM): 0.26 ± 0.07 nmol PBG.mg.tn‐1.h‐1 | δ-ALA-D activity ([4]; Kidney, 10 μM): 0.96 ± 0.12 nmol PBG.mg.tn‐1.h‐1 | δ-ALA-D activity ([4]; Kidney, 50 μM): 0.95 ± 0.10 nmol PBG.mg.tn‐1.h‐1 | δ-ALA-D activity ([4]; Kidney, 100 μM): 0.84 ± 0.10 nmol PBG.mg.tn‐1.h‐1 | δ-ALA-D activity ([4]; Kidney, 500 μM): 0.61 ± 0.12 nmol PBG.mg.tn‐1.h‐1 | δ-ALA-D activity ([4]; Liver, 10 μM): 4.90 ± 0.58 nmol PBG.mg.tn‐1.h‐1 | δ-ALA-D activity ([4]; Liver, 50 μM): 4.71 ± 0.53 nmol PBG.mg.tn‐1.h‐1 | δ-ALA-D activity ([4]; Liver, 100 μM): 4.57 ± 0.62 nmol PBG.mg.tn‐1.h‐1 | δ-ALA-D activity ([4]; Liver, 500 μM): 3.97 ± 0.82 nmol PBG.mg.tn‐1.h‐1 | DPPH radical scavenging activity (in words) [5]: did not present effect
